Assay results as given in US12435059B2, “AMP-activated protein kinase inhibitors and methods of making and using the same” (The Regents of the University of Colorado, priority 2019, dated 2025).
Like-named read-outs stand apart in the source and are kept apart here.

Tests used:
Assay in all cases: biochemical
Assay type in all cases: binding
468 kinases [1] = molecular target: 468 kinases (Homo sapiens, UniProt O75116); conditions: ROCK2; read-out: % Inhibition @ 100 nM
468 kinases [2] = molecular target: 468 kinases (Homo sapiens, UniProt Q9Y6M4); conditions: CSNK1G3; read-out: % Inhibition @ 100 nM
468 kinases [3] = molecular target: 468 kinases (Homo sapiens, UniProt P50750); conditions: CDK9; read-out: % Inhibition @ 100 nM
468 kinases [4] = molecular target: 468 kinases (Homo sapiens, UniProt P49760); conditions: CLK2; read-out: % Inhibition @ 100 nM
468 kinases [5] = molecular target: 468 kinases (Homo sapiens, UniProt P00519, T315I); conditions: read-out: % Inhibition @ 100 nM
468 kinases [6] = molecular target: 468 kinases (Homo sapiens, UniProt Q9BVS4); conditions: RIOK2; read-out: % Inhibition @ 100 nM
468 kinases [7] = molecular target: 468 kinases (Homo sapiens, UniProt Q00526); conditions: CDK3; read-out: % Inhibition @ 100 nM
468 kinases [8] = molecular target: 468 kinases (Homo sapiens, UniProt Q8NG66); conditions: NEK11; read-out: % Inhibition @ 100 nM
468 kinases [9] = molecular target: 468 kinases (Homo sapiens, UniProt P14616); conditions: INSRR; read-out: % Inhibition @ 100 nM
468 kinases [10] = molecular target: 468 kinases (Homo sapiens, UniProt Q15208); conditions: NDR1; read-out: % Inhibition @ 100 nM
468 kinases [11] = molecular target: 468 kinases (Homo sapiens, UniProt P57078); conditions: RIPK4; read-out: % Inhibition @ 100 nM
468 kinases [12] = molecular target: 468 kinases (Homo sapiens, UniProt P27037); conditions: ACVR2A; read-out: % Inhibition @ 100 nM
468 kinases [13] = molecular target: 468 kinases (Homo sapiens, UniProt Q9BXA7); conditions: TSSK1B; read-out: % Inhibition @ 100 nM
468 kinases [14] = molecular target: 468 kinases (Homo sapiens, UniProt Q8NI60); conditions: ADCK3; read-out: % Inhibition @ 100 nM
468 kinases [15] = molecular target: 468 kinases (Mycobacterium tuberculosis, UniProt P9WI81); conditions: PKNB(M.tuberculosis); read-out: % Inhibition @ 100 nM
468 kinases [16] = molecular target: 468 kinases (Homo sapiens, UniProt Q15746); conditions: MYLK; read-out: % Inhibition @ 100 nM
468 kinases [17] = molecular target: 468 kinases (Homo sapiens, UniProt Q12866); conditions: MERTK; read-out: % Inhibition @ 100 nM
468 kinases [18] = molecular target: 468 kinases (Homo sapiens, UniProt Q16513); conditions: PKN2; read-out: % Inhibition @ 100 nM
468 kinases [19] = molecular target: 468 kinases (Homo sapiens, UniProt Q9P2K8, S808G); conditions: GCN2(Kin.Dom.2,S808G); read-out: % Inhibition @ 100 nM
468 kinases [20] = molecular target: 468 kinases (Homo sapiens, UniProt P51957); conditions: NEK4; read-out: % Inhibition @ 100 nM
468 kinases [21] = molecular target: 468 kinases (Homo sapiens, UniProt Q9NQU5); conditions: PAK6; read-out: % Inhibition @ 100 nM
468 kinases [22] = molecular target: 468 kinases (Homo sapiens, UniProt P49336); conditions: CDK8; read-out: % Inhibition @ 100 nM
468 kinases [23] = molecular target: 468 kinases (Homo sapiens, UniProt O75582); conditions: read-out: % Inhibition @ 100 nM
468 kinases [24] = molecular target: 468 kinases (Homo sapiens, UniProt P52333); conditions: JAK3 (JH1domain-catalytic); read-out: % Inhibition @ 100 nM
468 kinases [25] = molecular target: 468 kinases (Homo sapiens, UniProt O95382); conditions: ASK2; read-out: % Inhibition @ 100 nM
468 kinases [26] = molecular target: 468 kinases (Homo sapiens, UniProt Q9Y2H1); conditions: NDR2; read-out: % Inhibition @ 100 nM
468 kinases [27] = molecular target: 468 kinases (Homo sapiens, UniProt P42345); conditions: MTOR; read-out: % Inhibition @ 100 nM
468 kinases [28] = molecular target: 468 kinases (Homo sapiens, UniProt O75460); conditions: ERN1; read-out: % Inhibition @ 100 nM
468 kinases [29] = molecular target: 468 kinases (Homo sapiens, UniProt Q9NRH2); conditions: SNRK; read-out: % Inhibition @ 100 nM
468 kinases [30] = molecular target: 468 kinases (Homo sapiens, UniProt P78362); conditions: SRPK2; read-out: % Inhibition @ 100 nM
468 kinases [31] = molecular target: 468 kinases (Homo sapiens, UniProt P25098); conditions: GRK2; read-out: % Inhibition @ 100 nM
468 kinases [32] = molecular target: 468 kinases (Homo sapiens, UniProt O60285); conditions: ARK5; read-out: % Inhibition @ 100 nM

468 kinases (Homo sapiens, UniProt O75460), sequence (O75460 19-977 limits assumed): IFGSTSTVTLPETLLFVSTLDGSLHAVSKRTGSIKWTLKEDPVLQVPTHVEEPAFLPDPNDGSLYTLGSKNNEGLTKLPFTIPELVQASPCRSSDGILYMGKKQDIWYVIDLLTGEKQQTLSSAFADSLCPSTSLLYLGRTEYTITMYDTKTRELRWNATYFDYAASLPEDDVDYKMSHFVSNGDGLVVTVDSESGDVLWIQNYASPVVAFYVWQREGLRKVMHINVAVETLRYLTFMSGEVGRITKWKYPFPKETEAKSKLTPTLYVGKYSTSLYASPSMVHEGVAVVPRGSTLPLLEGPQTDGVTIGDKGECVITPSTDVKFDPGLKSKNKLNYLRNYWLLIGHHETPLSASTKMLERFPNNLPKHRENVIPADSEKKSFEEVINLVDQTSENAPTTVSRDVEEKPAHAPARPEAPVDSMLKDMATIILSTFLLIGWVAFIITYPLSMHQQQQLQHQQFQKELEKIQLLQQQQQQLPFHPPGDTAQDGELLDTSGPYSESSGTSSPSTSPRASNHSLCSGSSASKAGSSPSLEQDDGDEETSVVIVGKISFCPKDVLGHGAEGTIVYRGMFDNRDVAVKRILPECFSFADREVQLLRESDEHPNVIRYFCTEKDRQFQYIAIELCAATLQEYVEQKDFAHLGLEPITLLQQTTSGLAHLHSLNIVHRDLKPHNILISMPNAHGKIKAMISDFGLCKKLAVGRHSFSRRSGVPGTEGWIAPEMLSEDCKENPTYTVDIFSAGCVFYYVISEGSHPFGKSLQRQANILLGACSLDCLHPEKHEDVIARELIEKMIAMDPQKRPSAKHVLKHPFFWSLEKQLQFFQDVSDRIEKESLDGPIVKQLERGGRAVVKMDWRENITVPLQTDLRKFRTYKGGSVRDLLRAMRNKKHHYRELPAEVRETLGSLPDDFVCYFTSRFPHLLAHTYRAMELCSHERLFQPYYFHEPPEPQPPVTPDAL
468 kinases (Homo sapiens, UniProt P27037), sequence (P27037 20-513 limits assumed): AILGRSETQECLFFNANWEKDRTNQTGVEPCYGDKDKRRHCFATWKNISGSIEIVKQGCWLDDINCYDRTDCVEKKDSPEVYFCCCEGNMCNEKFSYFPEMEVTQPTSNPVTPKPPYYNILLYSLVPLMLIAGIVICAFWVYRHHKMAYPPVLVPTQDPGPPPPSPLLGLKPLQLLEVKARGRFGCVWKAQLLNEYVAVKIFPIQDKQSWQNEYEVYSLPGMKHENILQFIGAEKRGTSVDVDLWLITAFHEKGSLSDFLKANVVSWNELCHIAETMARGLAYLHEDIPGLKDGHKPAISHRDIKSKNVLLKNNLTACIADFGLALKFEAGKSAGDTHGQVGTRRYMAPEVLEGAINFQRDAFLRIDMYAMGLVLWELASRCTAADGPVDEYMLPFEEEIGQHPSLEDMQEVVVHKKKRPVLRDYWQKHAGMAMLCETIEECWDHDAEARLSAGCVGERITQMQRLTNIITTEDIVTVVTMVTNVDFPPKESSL
468 kinases (Homo sapiens, UniProt Q15208), sequence (Q15208 2-465 limits assumed): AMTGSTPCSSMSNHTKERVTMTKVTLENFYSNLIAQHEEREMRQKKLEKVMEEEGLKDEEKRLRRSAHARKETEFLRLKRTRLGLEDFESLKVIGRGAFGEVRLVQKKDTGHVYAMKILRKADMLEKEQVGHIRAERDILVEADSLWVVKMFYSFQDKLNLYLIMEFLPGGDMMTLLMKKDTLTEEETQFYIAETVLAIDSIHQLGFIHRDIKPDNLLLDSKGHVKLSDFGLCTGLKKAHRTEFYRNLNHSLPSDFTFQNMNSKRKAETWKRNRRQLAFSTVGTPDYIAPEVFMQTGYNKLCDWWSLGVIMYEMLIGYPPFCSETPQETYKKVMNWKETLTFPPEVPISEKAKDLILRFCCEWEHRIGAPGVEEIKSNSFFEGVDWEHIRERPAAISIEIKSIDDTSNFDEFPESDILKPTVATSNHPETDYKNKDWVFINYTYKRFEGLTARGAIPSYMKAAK
468 kinases (Homo sapiens, UniProt Q8NI60), sequence (Q8NI60 163-647 limits assumed): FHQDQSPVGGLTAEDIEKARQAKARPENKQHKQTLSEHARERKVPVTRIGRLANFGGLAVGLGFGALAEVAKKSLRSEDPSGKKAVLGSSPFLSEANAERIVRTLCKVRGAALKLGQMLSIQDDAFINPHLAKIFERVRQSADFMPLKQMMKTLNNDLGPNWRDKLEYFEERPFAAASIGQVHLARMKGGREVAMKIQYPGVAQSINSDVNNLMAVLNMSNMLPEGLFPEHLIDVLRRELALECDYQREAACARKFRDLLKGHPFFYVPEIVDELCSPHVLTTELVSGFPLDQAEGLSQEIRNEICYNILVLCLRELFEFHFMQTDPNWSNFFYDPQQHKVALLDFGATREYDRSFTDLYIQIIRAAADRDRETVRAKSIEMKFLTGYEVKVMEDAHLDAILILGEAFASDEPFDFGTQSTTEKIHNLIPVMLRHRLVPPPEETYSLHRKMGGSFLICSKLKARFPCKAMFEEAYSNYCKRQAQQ
468 kinases (Mycobacterium tuberculosis, UniProt P9WI81), sequence (P9WI81 2-626 limits assumed): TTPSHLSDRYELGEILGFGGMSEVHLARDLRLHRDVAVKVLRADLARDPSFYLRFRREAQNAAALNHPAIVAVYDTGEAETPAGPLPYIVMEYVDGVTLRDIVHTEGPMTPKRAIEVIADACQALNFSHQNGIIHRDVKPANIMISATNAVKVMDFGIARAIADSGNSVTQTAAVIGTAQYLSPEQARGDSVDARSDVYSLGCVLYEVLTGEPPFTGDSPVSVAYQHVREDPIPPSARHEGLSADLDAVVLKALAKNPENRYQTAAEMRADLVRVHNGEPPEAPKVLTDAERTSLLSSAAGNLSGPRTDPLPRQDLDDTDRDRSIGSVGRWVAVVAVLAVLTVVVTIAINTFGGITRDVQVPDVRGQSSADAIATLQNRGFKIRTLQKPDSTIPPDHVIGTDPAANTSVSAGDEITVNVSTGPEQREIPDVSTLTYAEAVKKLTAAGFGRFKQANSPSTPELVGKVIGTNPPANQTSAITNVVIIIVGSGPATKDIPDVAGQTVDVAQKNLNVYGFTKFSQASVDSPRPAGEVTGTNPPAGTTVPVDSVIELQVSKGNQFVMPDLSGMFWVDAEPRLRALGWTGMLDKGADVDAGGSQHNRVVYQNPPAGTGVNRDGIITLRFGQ
468 kinases (Homo sapiens, UniProt P14616), sequence (P14616 27-742 limits assumed): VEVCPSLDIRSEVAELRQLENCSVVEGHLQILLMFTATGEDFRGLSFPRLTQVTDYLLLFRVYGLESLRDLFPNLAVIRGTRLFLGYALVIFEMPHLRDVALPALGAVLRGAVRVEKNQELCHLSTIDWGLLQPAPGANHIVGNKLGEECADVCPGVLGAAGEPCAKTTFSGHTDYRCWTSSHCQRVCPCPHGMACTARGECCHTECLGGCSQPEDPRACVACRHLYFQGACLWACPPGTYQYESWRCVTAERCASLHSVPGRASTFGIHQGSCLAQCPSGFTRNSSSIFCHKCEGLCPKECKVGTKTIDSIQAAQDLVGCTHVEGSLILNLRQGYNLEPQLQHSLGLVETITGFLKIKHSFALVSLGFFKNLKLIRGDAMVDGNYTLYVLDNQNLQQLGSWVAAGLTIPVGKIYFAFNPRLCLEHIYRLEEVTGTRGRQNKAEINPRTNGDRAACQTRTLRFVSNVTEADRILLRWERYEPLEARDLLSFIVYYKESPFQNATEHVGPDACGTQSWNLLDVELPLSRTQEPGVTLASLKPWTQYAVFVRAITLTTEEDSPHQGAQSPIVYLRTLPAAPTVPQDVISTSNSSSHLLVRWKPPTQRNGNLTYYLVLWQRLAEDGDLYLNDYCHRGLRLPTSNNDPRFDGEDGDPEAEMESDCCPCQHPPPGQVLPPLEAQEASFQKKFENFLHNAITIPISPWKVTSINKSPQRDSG
468 kinases (Homo sapiens, UniProt P14616), sequence (P14616 747-1297 limits assumed): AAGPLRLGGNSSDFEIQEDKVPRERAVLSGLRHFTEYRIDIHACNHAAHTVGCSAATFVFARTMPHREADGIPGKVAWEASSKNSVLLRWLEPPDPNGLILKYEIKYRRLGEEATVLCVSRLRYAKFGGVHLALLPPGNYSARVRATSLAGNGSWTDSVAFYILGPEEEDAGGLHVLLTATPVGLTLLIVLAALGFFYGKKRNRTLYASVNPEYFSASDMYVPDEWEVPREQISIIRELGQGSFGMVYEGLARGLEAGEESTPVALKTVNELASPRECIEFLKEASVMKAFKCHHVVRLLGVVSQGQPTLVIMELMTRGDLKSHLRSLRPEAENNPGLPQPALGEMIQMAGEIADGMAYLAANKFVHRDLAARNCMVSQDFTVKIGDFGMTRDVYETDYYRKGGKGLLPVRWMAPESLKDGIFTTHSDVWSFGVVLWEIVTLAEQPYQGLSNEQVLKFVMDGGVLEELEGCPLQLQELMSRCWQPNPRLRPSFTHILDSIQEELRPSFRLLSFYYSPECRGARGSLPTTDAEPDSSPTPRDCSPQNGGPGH
468 kinases (Homo sapiens, UniProt Q9Y2H1), sequence (Q9Y2H1 2-464 limits assumed): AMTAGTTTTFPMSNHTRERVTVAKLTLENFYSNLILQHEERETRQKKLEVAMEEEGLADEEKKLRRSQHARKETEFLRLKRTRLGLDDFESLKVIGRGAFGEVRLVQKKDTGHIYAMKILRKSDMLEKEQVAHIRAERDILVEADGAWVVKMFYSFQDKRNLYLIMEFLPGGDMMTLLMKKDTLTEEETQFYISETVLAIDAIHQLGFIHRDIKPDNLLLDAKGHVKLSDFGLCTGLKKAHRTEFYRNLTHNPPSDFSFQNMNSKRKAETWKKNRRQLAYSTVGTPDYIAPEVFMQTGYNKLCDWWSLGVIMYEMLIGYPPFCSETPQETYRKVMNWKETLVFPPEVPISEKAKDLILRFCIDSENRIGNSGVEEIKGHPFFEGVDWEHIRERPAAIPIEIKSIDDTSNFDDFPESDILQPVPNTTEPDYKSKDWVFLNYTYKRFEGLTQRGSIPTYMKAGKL

SMILES | inhibition at 0.1 µM (468 kinases [1]) | inhibition at 0.1 µM (468 kinases [2]) | inhibition at 0.1 µM (468 kinases [3]) | inhibition at 0.1 µM (468 kinases [4]) | inhibition at 0.1 µM (468 kinases [5]; ABL1 (T3151)-nonphosphorylated) | inhibition at 0.1 µM (468 kinases [5]; ABL1 (T3151)-phosphorylated) | inhibition at 0.1 µM (468 kinases [6]) | inhibition at 0.1 µM (468 kinases [7]) | inhibition at 0.1 µM (468 kinases [8]) | inhibition at 0.1 µM (468 kinases [9]) | inhibition at 0.1 µM (468 kinases [10]) | inhibition at 0.1 µM (468 kinases [11]) | inhibition at 0.1 µM (468 kinases [12]) | inhibition at 0.1 µM (468 kinases [13]) | inhibition at 0.1 µM (468 kinases [14]) | inhibition at 0.1 µM (468 kinases [15]) | inhibition at 0.1 µM (468 kinases [16]) | inhibition at 0.1 µM (468 kinases [17]) | inhibition at 0.1 µM (468 kinases [18]) | inhibition at 0.1 µM (468 kinases [19]) | also measured
CCN(CC)CCNC(=O)c1c(C)[nH]c(/C=C2\C(=O)Nc3ccc(CCC(N)=O)cc32)c1C [Compound No. 16, (Z)-5-((5-(3-Amino-3-oxopropyl)-2-oxoindolin-3-ylidene)methyl)-N-(2-(diethylamino)ethyl)-2,4-dimethyl-1H-pyrrole-3-carboxamide] | 44% | 5% | 6% | 100% | 61% | 86% | 38% | 19% | 36% | 10% | 20% | 14% | 18% | 4% | 8% | 16% | 34% | 68% | 18% | 0% | inhibition at 0.1 µM (468 kinases [20]): 9%; inhibition at 0.1 µM (468 kinases [21]): 0%; inhibition at 0.1 µM (468 kinases [22]): 15%; inhibition at 0.1 µM (468 kinases [23]; RPS6KA5(Kin.Dom.1-N-terminal)): 0%; inhibition at 0.1 µM (468 kinases [23]; RPS6KA5(Kin.Dom.2-C-terminal)): 17%; inhibition at 0.1 µM (468 kinases [24]): 48%; inhibition at 0.1 µM (468 kinases [25]): 47%; inhibition at 0.1 µM (468 kinases [26]): 11%; inhibition at 0.1 µM (468 kinases [27]): 6%; inhibition at 0.1 µM (468 kinases [28]): 10%; inhibition at 0.1 µM (468 kinases [29]): 10%; inhibition at 0.1 µM (468 kinases [30]): 51%; inhibition at 0.1 µM (468 kinases [31]): 48%; inhibition at 0.1 µM (468 kinases [32]): 71%
CCN(CC)CCNC(=O)c1c(C)[nH]c(/C=C2\C(=O)Nc3ccc(CCO)cc32)c1C [Compound No. 10, (Z)—N-(2-(Diethylamino)ethyl)-5-((5-(2-hydroxyethyl)-2-oxoindolin-3-ylidene)methyl)-2,4-dimethyl-1H-pyrrole-3-carboxamide] | 29% | 6% | 0% | 93.8% | 56% | 91.8% | 0% | 0% | 0% | 1% | 34% | 12% | 10% | 0% | 8% | 0% | 49% | 71% | 24% | 28% | inhibition at 0.1 µM (468 kinases [20]): 0%; inhibition at 0.1 µM (468 kinases [21]): 0%; inhibition at 0.1 µM (468 kinases [22]): 23%; inhibition at 0.1 µM (468 kinases [23]; RPS6KA5(Kin.Dom.1-N-terminal)): 11%; inhibition at 0.1 µM (468 kinases [23]; RPS6KA5(Kin.Dom.2-C-terminal)): 0%; inhibition at 0.1 µM (468 kinases [24]): 17%; inhibition at 0.1 µM (468 kinases [25]): 0%; inhibition at 0.1 µM (468 kinases [26]): 0%; inhibition at 0.1 µM (468 kinases [27]): 0%; inhibition at 0.1 µM (468 kinases [28]): 0%; inhibition at 0.1 µM (468 kinases [29]): 12%; inhibition at 0.1 µM (468 kinases [30]): 66%; inhibition at 0.1 µM (468 kinases [31]): 0%; inhibition at 0.1 µM (468 kinases [32]): 84%
